How the values were obtained:
[1] = system: immortalized ovarian surface epithelial cells; experiment: LPA-stimulated calcium mobilization in immortalized ovarian surface epithelial cells; format: cell-based; settings: 10 μM compound, FIG. 3
[2] = system: forskolin-stimulated cAMP production; experiment: cAMP assay: LPA inhibition of forskolin-stimulated cAMP production; format: cell-based; settings: FIG. 4
Text: Because cAMP acts a second messenger in cell signaling, activating protein kinases that in turn phosphorylate enzymes and transcription factors, cAMP concentration is frequently indicative of the activation state of downstream signaling pathways. For GPCRs like the Edg receptors, coupling via a Gαi pathway results in inhibition of adenylyl cyclase activity, the key enzyme involved in breakdown of ATP and formation of cAMP. Thus, assays can be designed to measure inhibition of adenylyl cyclase activity, by first stimulating cAMP formation. One example of a compound, which stimulates cAMP formation is forskolin. Forskolin bypasses the receptor and directly activates adenylyl cyclase. […]
This assay can be performed by any means known to one of skill in the art. […] Following an incubation period, the cells are lysed and the level of cAMP is determined.
The cAMP assay can be performed by any means known to one of skill in the art, for example, by performing a competitive immunoassay. […] Detection can be performed by any appropriate means, including, but not limited to, using a substrate solution and chemiluminescent readout.
Cells were plated in a 96 well format. […] Following a 30-minute incubation period, the cells were lysed and the level of cAMP was determined. […]
Detection was performed using a substrate solution and chemiluminescent readout. […]

Edg 1 receptor = biological target: T1, Edg 1 receptor (Homo sapiens, UniProt P21453); experiment: LPA/S1P-stimulated calcium mobilization assay (FLIPR), HTC cells expressing Edg 1; format: cell-based; settings: for inhibition of S1P-stimulated calcium increases: FIG. 1 / FIG. 2
T1 construct: expressed in transfected cells; host or cells: HTC (rat hepatoma) cells
T1 sequence (P21453 whole entry): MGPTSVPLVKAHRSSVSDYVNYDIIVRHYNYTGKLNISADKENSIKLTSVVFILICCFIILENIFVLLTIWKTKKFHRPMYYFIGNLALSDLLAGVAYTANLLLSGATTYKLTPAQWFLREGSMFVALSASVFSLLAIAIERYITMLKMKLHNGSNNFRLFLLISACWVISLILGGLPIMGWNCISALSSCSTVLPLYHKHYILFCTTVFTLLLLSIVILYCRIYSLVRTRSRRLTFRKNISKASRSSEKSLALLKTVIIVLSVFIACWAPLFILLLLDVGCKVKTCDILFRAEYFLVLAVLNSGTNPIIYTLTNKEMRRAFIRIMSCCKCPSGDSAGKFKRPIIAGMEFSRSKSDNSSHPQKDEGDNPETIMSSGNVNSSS

Edg 3 receptor = biological target: T2, Edg 3 receptor (Homo sapiens, UniProt Q99500); experiment: LPA/S1P-stimulated calcium mobilization assay (FLIPR), HTC cells expressing Edg 3; format: cell-based; settings: for inhibition of S1P-stimulated calcium increases: FIG. 1 / FIG. 2
T2 construct: expressed in transfected cells; host or cells: HTC (rat hepatoma) cells
T2 sequence (Q99500 whole entry): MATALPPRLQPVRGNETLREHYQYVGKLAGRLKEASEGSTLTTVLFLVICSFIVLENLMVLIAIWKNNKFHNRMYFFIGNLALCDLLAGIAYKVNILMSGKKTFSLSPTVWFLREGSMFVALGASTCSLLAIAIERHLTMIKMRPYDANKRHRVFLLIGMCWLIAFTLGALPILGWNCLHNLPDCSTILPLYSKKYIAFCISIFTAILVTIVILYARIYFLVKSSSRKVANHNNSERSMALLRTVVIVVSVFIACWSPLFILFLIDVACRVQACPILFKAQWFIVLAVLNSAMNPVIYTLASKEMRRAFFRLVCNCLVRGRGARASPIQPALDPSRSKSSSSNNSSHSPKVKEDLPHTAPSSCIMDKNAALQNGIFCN

Edg-7 receptor = biological target: T3, Edg-7 receptor (Homo sapiens, UniProt Q9UBY5); experiment: LPA/S1P-stimulated calcium mobilization assay (FLIPR), HTC cells expressing Edg 7; format: cell-based; settings: for inhibition of LPA-stimulated calcium increases: FIG. 1 / FIG. 2
T3 construct: expressed in transfected cells; host or cells: HTC (rat hepatoma) cells
T3 sequence (Q9UBY5 1-353): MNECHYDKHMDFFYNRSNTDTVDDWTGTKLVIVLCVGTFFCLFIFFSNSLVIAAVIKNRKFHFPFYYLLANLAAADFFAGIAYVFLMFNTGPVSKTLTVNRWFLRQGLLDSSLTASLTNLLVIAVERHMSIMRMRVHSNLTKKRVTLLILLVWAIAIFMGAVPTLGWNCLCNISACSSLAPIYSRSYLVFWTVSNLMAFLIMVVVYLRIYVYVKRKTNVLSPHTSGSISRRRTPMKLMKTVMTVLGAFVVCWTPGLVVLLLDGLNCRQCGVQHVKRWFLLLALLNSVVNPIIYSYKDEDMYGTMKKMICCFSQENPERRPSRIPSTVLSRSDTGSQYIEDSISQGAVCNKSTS

Edg 8 receptor = biological target: T4, Edg 8 receptor (Homo sapiens, UniProt Q9H228); experiment: LPA/S1P-stimulated calcium mobilization assay (FLIPR), HTC cells expressing Edg 8; format: cell-based; settings: for inhibition of S1P-stimulated calcium increases: FIG. 1 / FIG. 2
T4 construct: expressed in transfected cells; host or cells: HTC (rat hepatoma) cells
T4 sequence (Q9H228 whole entry): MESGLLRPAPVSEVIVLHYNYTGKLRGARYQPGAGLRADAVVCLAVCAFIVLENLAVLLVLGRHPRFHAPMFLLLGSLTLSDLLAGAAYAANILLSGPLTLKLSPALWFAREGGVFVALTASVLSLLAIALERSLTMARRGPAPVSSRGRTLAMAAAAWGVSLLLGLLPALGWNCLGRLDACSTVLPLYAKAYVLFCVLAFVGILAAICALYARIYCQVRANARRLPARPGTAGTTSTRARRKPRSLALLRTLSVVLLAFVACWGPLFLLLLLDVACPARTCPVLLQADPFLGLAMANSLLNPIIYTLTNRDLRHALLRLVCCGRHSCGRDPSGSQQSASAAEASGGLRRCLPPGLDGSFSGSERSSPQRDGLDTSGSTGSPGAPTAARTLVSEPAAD

Dopamine D2L = Dopamine D2L (Homo sapiens, UniProt P14416); settings: significance criteria ≧50% of max stimulation or inhibition; Table 2
Chain of Dopamine D2L (P14416 whole entry): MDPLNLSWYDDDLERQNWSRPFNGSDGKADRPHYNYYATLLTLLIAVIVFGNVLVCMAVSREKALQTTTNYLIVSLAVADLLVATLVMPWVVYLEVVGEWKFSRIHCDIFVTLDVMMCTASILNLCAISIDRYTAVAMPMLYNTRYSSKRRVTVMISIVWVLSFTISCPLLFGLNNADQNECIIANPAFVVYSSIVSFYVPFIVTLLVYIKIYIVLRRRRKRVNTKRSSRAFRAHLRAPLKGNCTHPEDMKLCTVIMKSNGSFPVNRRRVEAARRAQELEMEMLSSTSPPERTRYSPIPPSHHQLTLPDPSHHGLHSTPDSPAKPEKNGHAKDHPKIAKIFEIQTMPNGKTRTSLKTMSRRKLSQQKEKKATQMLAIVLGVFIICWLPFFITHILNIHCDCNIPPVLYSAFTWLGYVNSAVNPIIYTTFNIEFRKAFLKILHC
Description: (§1) In order to test the selectivity of compounds, various radioligand binding assays were performed using numerous non-Edg receptor targets as listed below.
(§2) A radioligand binding assay was performed using adrenergic α1 according to the method of Greengrass and Bremner 1979, Eur. J. Pharmacol. 55:323-326. A radioligand binding assay was performed using adrenergic α2 according to the method of Boyajian and Leslie, 1987, J. Pharmacol. Exp. Ther. 241:1092-1098. A radioligand binding assay was performed using adrenergic β according to the method of Feve et al., 1994, Proc. Natl. Acad. Sci USA 91:5677-5681. A radioligand binding assay was performed using angiotensin AT2 according to the method of Whitebread et al., 1991, Biochem. Biophys. Res. Comm. 181:1365-1371. A radioligand binding assay was performed using calcium channel Type L, dihydropyridine according to the method of Ehlert et al., 1982, Life Sci. 30:2191-2202. A radioligand binding assay was performed using dopamine D2L according to the method of Bunzo et al., 1988, Nature 336:783-787. A radioligand binding assay was performed using endothelin ETA according to the method of Mihara et al., 1994, J. Pharmacol. Exp Ther. 268:1122-1127. A radioligand binding assay was performed using histamine H1 Central according to the method of Hill et al., 1978, J. Neurochem. 31:997-1004. A radioligand binding assay was performed using Muscarinic non-selective, Central according to the method of Luthin and Wolfe, 1984, J. Pharmacol. Exp. Ther. 228:648-655. A radioligand binding assay was performed using serotonin 5-HT1, non-selective according to the method of Middlemiss, 1984, Eur. J. Pharmacol. 101:289-293).

Endothelin ETA = Endothelin ETA (Homo sapiens, UniProt P25101); settings: significance criteria ≧50% of max stimulation or inhibition; Table 2
Chain of Endothelin ETA (P25101 21-427): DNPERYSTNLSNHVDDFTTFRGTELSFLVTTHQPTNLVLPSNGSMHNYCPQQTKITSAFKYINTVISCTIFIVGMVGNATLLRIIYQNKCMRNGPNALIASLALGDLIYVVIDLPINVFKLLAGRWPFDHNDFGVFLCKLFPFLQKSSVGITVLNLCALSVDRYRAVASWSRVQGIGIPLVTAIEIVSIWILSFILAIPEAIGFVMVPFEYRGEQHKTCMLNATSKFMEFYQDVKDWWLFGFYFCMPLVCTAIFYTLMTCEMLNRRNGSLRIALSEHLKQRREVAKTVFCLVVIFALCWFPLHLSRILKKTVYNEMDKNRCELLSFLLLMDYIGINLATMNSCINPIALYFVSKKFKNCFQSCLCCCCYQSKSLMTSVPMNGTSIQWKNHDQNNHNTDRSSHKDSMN
Description: as §1, §2

Angiotensin AT2 = Angiotensin AT2 (Homo sapiens, UniProt P50052); settings: significance criteria ≧50% of max stimulation or inhibition; Table 2
Chain of Angiotensin AT2 (P50052 whole entry): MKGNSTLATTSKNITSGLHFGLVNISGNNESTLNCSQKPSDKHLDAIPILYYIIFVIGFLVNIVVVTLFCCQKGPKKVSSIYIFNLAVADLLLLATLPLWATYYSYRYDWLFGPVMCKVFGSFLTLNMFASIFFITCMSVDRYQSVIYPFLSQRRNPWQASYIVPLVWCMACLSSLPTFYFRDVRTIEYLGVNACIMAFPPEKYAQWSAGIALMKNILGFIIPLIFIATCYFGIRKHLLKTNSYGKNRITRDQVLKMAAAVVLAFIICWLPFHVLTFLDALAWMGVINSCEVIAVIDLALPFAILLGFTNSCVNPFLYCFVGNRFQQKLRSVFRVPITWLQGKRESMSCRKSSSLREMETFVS
Description: as §1, §2

[3] = system: Calcium Channel Type L, Dihydropyridine; settings: significance criteria ≧50% of max stimulation or inhibition; Table 2
Description: as §1, §2

Histamine H1, Central = Histamine H1, Central (Cavia porcellus, UniProt P31389); settings: significance criteria ≧50% of max stimulation or inhibition; Table 2
Chain of Histamine H1, Central (P31389 whole entry): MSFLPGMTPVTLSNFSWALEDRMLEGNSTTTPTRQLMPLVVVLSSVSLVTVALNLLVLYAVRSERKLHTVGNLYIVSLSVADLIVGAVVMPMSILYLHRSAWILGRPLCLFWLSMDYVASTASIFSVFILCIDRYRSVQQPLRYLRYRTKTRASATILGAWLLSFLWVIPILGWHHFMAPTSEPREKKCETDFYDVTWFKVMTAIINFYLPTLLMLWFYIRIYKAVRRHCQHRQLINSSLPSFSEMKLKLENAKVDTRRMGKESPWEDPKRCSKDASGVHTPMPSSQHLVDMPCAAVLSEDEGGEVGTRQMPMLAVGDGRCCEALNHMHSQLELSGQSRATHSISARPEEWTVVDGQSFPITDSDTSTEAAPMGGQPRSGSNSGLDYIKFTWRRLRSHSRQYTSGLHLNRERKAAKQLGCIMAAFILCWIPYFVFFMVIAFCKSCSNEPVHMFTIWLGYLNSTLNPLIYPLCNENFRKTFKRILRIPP
Description: as §1, §2

[4] = system: Adrenergic α1, non-selective; settings: significance criteria ≧50% of max stimulation or inhibition; Table 2
Description: as §1, §2

[5] = system: Muscarinic non-selective, Central; settings: significance criteria ≧50% of max stimulation or inhibition; Table 2
Description: as §1, §2

Adrenergic β = settings: significance criteria ≧50% of max stimulation or inhibition; Table 2
Description: as §1, §2

Adrenergic α2 = settings: significance criteria ≧50% of max stimulation or inhibition; Table 2
Description: as §1, §2

[6] = system: Serotonin 5-HT1, non-selective; settings: significance criteria ≧50% of max stimulation or inhibition; Table 2
Description: as §1, §2

Edg 5 receptor = biological target: T5, Edg 5 receptor (Homo sapiens, UniProt O95136); experiment: LPA/S1P-stimulated calcium mobilization assay (FLIPR), HTC cells expressing Edg 5; format: cell-based; settings: for inhibition of S1P-stimulated calcium increases: FIG. 1 / FIG. 2
T5 construct: expressed in transfected cells; host or cells: HTC (rat hepatoma) cells
T5 sequence (O95136 whole entry): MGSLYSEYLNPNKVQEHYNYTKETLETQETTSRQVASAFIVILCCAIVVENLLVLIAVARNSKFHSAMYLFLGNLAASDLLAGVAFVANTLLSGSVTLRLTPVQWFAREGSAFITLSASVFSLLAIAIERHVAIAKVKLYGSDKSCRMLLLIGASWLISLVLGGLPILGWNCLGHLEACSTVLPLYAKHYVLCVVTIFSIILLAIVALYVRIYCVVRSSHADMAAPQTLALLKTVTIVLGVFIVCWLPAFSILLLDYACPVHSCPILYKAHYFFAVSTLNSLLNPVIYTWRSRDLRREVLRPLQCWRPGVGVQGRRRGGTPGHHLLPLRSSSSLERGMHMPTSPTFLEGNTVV

Edg-4 receptor = biological target: T6, Edg-4 receptor (Homo sapiens, UniProt Q9HBW0); experiment: LPA/S1P-stimulated calcium mobilization assay (FLIPR), HTC cells expressing Edg 4; format: cell-based; settings: for inhibition of LPA-stimulated calcium increases: FIG. 1 / FIG. 2
T6 construct: expressed in transfected cells; host or cells: HTC (rat hepatoma) cells
T6 sequence (Q9HBW0 whole entry): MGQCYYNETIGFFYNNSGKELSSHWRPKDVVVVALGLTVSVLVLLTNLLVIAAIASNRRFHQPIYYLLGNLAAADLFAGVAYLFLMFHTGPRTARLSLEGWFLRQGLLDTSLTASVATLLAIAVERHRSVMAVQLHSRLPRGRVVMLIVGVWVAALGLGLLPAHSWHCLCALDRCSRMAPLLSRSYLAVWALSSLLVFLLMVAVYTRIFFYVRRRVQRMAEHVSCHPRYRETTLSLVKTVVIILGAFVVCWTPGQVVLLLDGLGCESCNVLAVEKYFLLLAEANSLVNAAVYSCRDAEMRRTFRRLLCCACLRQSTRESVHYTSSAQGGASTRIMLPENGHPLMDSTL

[7] = system: various targets tested, including other GPCRs, ion channels, and enzymes; experiment: Pharmacology profiling (selectivity assays), panel of non-Edg targets of Table 2; format: binding; settings: all targets listed in Table 2 (bradykinin, CB2, chemokine, dopamine, histamine, muscarinic, NPY, opiate, prostanoid, purinergic, serotonin, sigma, sodium channel, tachykinin, growth factors etc.)
Edg-2 receptor = biological target: T7, Edg-2 receptor (Homo sapiens, UniProt Q92633); experiment: LPA/S1P-stimulated calcium mobilization assay (FLIPR), HTC cells expressing Edg 2; format: cell-based; settings: for inhibition of the Edg 2 receptor: FIG. 1 / FIG. 2; for IC50: HTC cells expressing Edg 2; for Fold Selective: selectivity for Edg-2 relative to other Edg receptors
T7 construct: expressed in transfected cells
T7 sequence (Q92633 whole entry): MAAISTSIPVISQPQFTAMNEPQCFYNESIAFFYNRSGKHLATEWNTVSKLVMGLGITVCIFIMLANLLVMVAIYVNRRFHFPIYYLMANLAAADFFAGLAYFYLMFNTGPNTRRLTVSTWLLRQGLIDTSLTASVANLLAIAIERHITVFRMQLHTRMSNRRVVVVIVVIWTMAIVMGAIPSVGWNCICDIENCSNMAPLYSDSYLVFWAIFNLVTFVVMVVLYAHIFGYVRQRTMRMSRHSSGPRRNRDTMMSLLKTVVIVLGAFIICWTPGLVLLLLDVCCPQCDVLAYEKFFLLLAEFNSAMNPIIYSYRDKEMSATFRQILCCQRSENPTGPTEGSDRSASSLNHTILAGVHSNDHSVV
Text: Specific assays for Edg-2 receptor activity are known to those of skill in the art. For example, cells expressing Edg-2 receptors can be contacted with a membrane-permeant calcium sensitive dye such as Fluo-4 AM or a proprietary calcium dye loading kit (e.g., FLIPR Calcium Assay kit, Molecular Devices, Sunnyvale, Calif.). Intracellular calcium is capable of binding to the dye and emitting fluorescent radiation when illuminated at the appropriate wavelength. The cells can thus be illuminated an appropriate wavelength for the dye and any emitting light can be captured by a cooled CCD camera. Changes in fluorescence indicate changes in intracellular calcium resulting from the activation of an Edg-2 receptor. Such changes can be measured advantageously in whole cells in “real-time” (Berridge et al., Nature Reviews 2000, 1:11-21).
LPA receptors such as Edg-2, couple to calcium effector pathways, and result in increases in intracellular calcium following receptor activation (An, 1998, J. Cell. Biochem. Supp., 30-31: 147-157). This biological response lends itself to a very efficient, high-throughput screen using a Fluorescence Imaging Plate Reader (FLIPR; Molecular Devices, Sunnyvale, Calif.). The FLIPR system is a real-time, cell-based assay system with continuous fluorescence detection using a cooled CCD camera. The FLIPR system was used to developing an Edg-2 receptor screen. Rat hepatoma cells stably expressing Edg-2 receptor were plated on 384-well plates and loaded with a calcium dye loading kit (Molecular Devices, Sunnyvale, Calif.) for 1 hour at room temperature. Cells were then placed on the FLIPR^384 (Molecular Devices, Sunnyvale, Calif.) and excited by an argon laser at 488 nm. The data for the entire 384-well plate was updated every second. An integrated robotic pipettor allowed for simultaneous compound addition into each individual well in the plate.

Structure (SMILES)	inhibition of LPA-stimulated calcium mobilization [1]	reversal of the inhibitory effects of LPA on forskolin-stimulated cAMP production [2]	IC50 (Edg 1 receptor)	inhibition of S1P-stimulated calcium increases (Edg 1 receptor)	IC50 (Edg 3 receptor)	inhibition of S1P-stimulated calcium increases (Edg 3 receptor)	IC50 (Edg-7 receptor)	inhibition of LPA-stimulated calcium increases (Edg-7 receptor)	IC50 (Edg 8 receptor)	inhibition of S1P-stimulated calcium increases (Edg 8 receptor)	IC50 (Edg 5 receptor)	inhibition of S1P-stimulated calcium increases (Edg 5 receptor)	IC50 (Edg-4 receptor)	inhibition of LPA-stimulated calcium increases (Edg-4 receptor)	activity at various targets tested, including other GPCRs, ion channels, and enzymes [7]	inhibition of the Edg 2 receptor (Edg-2 receptor)	IC50 (Edg-2 receptor)	Fold Selective (Edg-2 receptor)	also measured
O=C(CC(=O)C(F)(F)F)Nc1cc(-c2ccccc2)n[nH]1 [Compound 201, 4,4,4-trifluoro-3-oxo-N-(5-phenyl-2H-pyrazol-3-yl)-butyramide, reference compound]	little to no effect	little to no effect	–	–	–	–	–	–	–	–	–	–	–	–	–	–	–	–	–
CCOc1ccccc1N1C(=O)CC(N(O)c2ccccc2)C1=O (centres unmarked) [Compound 101, 1-(2-Ethoxyphenyl)-3-(hydroxyphenylamino)-pyrrolidine-2,5-dione]	–	–	> 20 µM	did not inhibit	> 20 µM	did not inhibit	> 20 µM	did not inhibit	> 20 µM	did not inhibit	> 20 µM	did not inhibit	> 20 µM	did not inhibit	did not demonstrate any significant activity	specifically inhibit	1.63 µM	>12.3 Fold	activity in radioligand binding assay, Dopamine D2L (Dopamine D2L): no significant activity; activity in radioligand binding assay, Endothelin ETA (Endothelin ETA): no significant activity; activity in radioligand binding assay, Angiotensin AT2 (Angiotensin AT2): no significant activity; activity in radioligand binding assay, Calcium Channels Type L, DHP [3]: no significant activity; activity in radioligand binding assay, H1 central (Histamine H1, Central): no significant activity; activity in radioligand binding assay, Adrenergic Alpha 1, non-selective [4]: no significant activity; activity in radioligand binding assay, Muscarinic, non-selective, central [5]: no significant activity; activity in radioligand binding assay, Adrenergic Beta, non-selective (Adrenergic β): no significant activity; activity in radioligand binding assay, Adrenergic Alpha 2, non-selective (Adrenergic α2): no significant activity; activity in radioligand binding assay, Serotonin 5HT1 non-selective [6]: no significant activity
CCn1nc(C)c(-c2ccccc2O)c1-c1ccccc1 [Compound 103, 2-(1-Ethyl-3-methyl-5-phenyl-1H-pyrazol-4-yl)-phenol]	almost completely inhibited	reverses the inhibitory effects of LPA	> 20 µM	did not inhibit	> 20 µM	did not inhibit	> 20 µM	did not inhibit	> 20 µM	did not inhibit	> 20 µM	did not inhibit	> 20 µM	did not inhibit	did not demonstrate any significant activity	specifically inhibited	0.51 µM	>39.3 Fold	–
CCOc1ccccc1N1C(=O)CC(N(O)c2ccc(F)cc2)C1=O (centres unmarked) [Compound 111, 1-(2-Ethoxyphenyl)-3-[(4-fluorophenyl)hydroxylamino]pyrrolidine-2,5-dione]	–	–	–	–	–	–	–	–	–	–	–	–	–	–	–	–	–	–	melting point: 123 to 124 °C

Source: US20050065194A1, “Methods of treating conditions associated with an Edg-2 receptor” (priority 2003, published 2005)
